According to PMC7993833, “EDP-938, a novel nucleoprotein inhibitor of respiratory syncytial virus, demonstrates potent antiviral activities in vitro and in a non-human primate model” (PLoS Pathogens, 2021):
Like-named read-outs stand apart in the source and are kept apart here.

Tests used:
[1] = system: RSV-B VR-955 EDP-938 resistant populations; test: Susceptibility of EDP-938 resistant RSV-B VR-955 populations; format: cell-based, respiratory syncytial virus
[2] = system: RSV-A M37; test: RT-qPCR assay, RSV-A M37 in HEp-2 cells; format: cell-based; details: human respiratory syncytial virus
Protocol: (§1) HEp-2, Vero, and BHK were seeded at 8,000 cells per well (cpw) in growth medium (Dulbecco’s Modified Eagle Medium (DMEM) with 1% GlutaMAX, 1% Penicillin/Streptomycin (P/S), 1% Non-Essential Amino Acids (NEAA), 10% Fetal Bovine Serum (FBS)) or (Minimum Essential Medium (MEM) with 10% FBS, 1% NEAA, 1% P/S) or (Eagle’s Minimum Essential Medium with L-Glutamine, with 10% FBS, 1% P/S) respectively. A549 seeded at 3,000 cpw in F-12K Kaighn’s Modification nutrient mixture with 10% FBS, 1% NEAA, 1% P/S. Cells seeded at time of infection in 96-well plates, final well volume 100μL. Compounds suspended in DMSO, serially diluted and added to wells at 0.5% final DMSO concentration. Viral stocks stabilized with 25% sucrose, previously titered using plaque assay, were added at desired MOI. Sucrose added to cells-only control wells to match percent added with virus. Unless otherwise noted, RSV-A strains were tested at 0.1 MOI and incubated for 5 days in a 37°C, 5% CO2 humidified incubator, and RSV-B at 0.5 MOI for 6 days. Cytopathic effect (CPE) determined using ATPlite (Perkin Elmer) measured with Envision luminometer. For RT-qPCR, RNA was extracted from whole well using Ambion RNAqueous-96 Automated Kit, and RT-qPCR run using Applied Biosystems TaqMan RNA-to-CT 1-Step Kit. […] All EC50s were calculated using the XLFit four-parameter logistic model 200 in Microsoft Excel.

[3] = system: RSV; test: Single-round synchronized infection time-of-addition, RT-qPCR endpoint; format: cell-based, respiratory syncytial virus; details: HEp-2; MOI 3; cold-synchronized; 2x or 20x EC50; added 0-8 hpi; RT-qPCR at 24 hpi
Protocol: (§2) In order to help determine which step of the viral life cycle EDP-938 blocks multiple in vitro time-of-addition studies were performed. In the first study, EDP-938 was administered to cells infected with RSV-A Long at a MOI of 0.1 at 2 hours pre-infection (-2) or 2, 6, or 24 hours post-infection (hpi), and viral CPE evaluated 5 days later. […] A second time-of-addition study explored the ability of EDP-938 to protect not just a population experiencing a spreading infection, but individual cells already infected with RSV. Using a MOI of 3, which infects approximately 95% of all cells, virus was cold-adsorbed to the cells for 1 hour to synchronize infection before transfer to 37°C to induce fusion (marking the 0 hpi time point). Compound was added at times indicated and a 24 hpi RT-qPCR endpoint was employed to constrain viral replication cycle to a single complete cycle.
For single round infection synchronized infection 25,000 HEp-2 cpw seeded 1-day pre-infection. Plates brought to 4°C, viral infection at 3 MOI calculated for 30,000 cpw incubated at 4°C 1hr. Compound added to 0h plate and plates moved to 37°C. Compound added at 2h, 4h, 6h, and 8h post-incubation (when plates moved to 37°C) to appropriate plates. 24 hpi viral copies measured with RT-qPCR as described above.

[4] = system: RSV-A clinical isolates; test: RSV Virospot reduction assay (ViroClinics), RSV-A isolates from the Netherlands; format: cell-based; details: human respiratory syncytial virus, 10 RSV-A strains from the Netherlands
Protocol: To further expand testing against clinical isolates, the compound was assayed against a panel of 10 RSV-A and 10 RSV-B strains mainly isolated from children of age 2–200 weeks in the Netherlands.
RSV clinical isolates were obtained from Baylor University and Medical College of Wisconsin. MOI of 0.1 used for all clinical isolates except RSV-A 629-9-2 (0.01) and RSV-B 629-24/2007 (0.0044) due to low titer. Virospot reduction assay was run by ViroClinics (Rotterdam, the Netherlands) against 20 additional RSV clinical isolates.

[5] = system: RSV-B VR-955; test: RT-qPCR assay, RSV-B VR-955 in A549 cells; format: cell-based; details: human respiratory syncytial virus
Protocol: as §1

[6] = system: RSV-B VR-955; test: RT-qPCR assay, RSV-B VR-955 in HEp-2 cells; format: cell-based; details: human respiratory syncytial virus
Protocol: as §1

[7] = system: broad panel of other viruses; format: cell-based
[8] = system: RSV-A2; test: RT-qPCR assay, RSV-A2 in Vero cells; format: cell-based; details: human respiratory syncytial virus
Protocol: as §1

[9] = system: RSV-A2; test: RT-qPCR assay, RSV-A2 in HEp-2 cells; format: cell-based; details: human respiratory syncytial virus
Protocol: as §1

[10] = system: recombinant RSV A2-line19F, N protein mutants; test: microbe, parasite or virus in culture; details: human respiratory syncytial virus
[11] = system: RSV-A Long; test: Time-of-addition study, CPE endpoint; format: cell-based, respiratory syncytial virus; details: for EC50: human respiratory syncytial virus, read-out: EC50 for cytoprotection
Protocol: as §2
As above, but 8,000 HEp-2 cpw seeded 1-day pre-infection. 2h pre-infection compound or media added. Plates incubated 2h. Viral infection at 0.1 MOI, incubated 1h. Viral inoculum removed, cells washed, and media replaced with compound for -2h sample. Compound added at 2h, 6h, and 24h post-infection to appropriate plates. 5dpi cell viability calculated as described above.

[12] = system: RSV-A M37; test: RT-qPCR assay, RSV-A M37 in primary HBECs; format: cell-based; details: human respiratory syncytial virus, primary HBEC

With `O=C1Nc2ccccc2C(c2ccccc2)=N[C@@H]1Nc1nnc(-c2ncc(C(F)(F)F)cc2N2CCOCC2)o1` [EDP-938] the “EC50 Fold Change vs. WT” value ([1]; RSV-B VR-955 Population 1, N: M109K, L139Q (dual WT/mutant population)) was 42 fold, the “EC50 Fold Change vs. WT” value ([1]; RSV-B VR-955 Population 2, N: M109T) was 6.6 fold and the “EC50 Fold Change vs. WT” value ([1]; RSV-B VR-955 Wild-Type) was 1 fold. The EC50 [2] was 54 ± 5 nM, the EC90 [2] was 85 ± 21 nM and the “inhibition of viral RNA production by time of addition” value [3] was “inhibited RNA production at all time points up to 8 hpi”. The EC50 [4] was 43 nM, the EC50 [5] was 83 ± 38 nM and the EC90 [5] was 170 ± 53 nM. The EC50 ([6]; 144 h, RSV-B VR-955 MOI 0.5, 6 days) was 110 ± 22 nM, the EC90 ([6]; RSV-B VR-955) was 140 ± 24 nM and the “activity against a broad panel of other viruses” value [7] was “did not demonstrate significant activity”. It also gave an EC50 [8] of 91 nM, an EC90 [8] of 101 ± 1.7 nM and an EC50 [9] of 59 ± 18 nM. The EC90 [9] was 70 ± 30 nM, the EC50 ([10]; HEp-2, recombinant RSV N K107N) was 52 ± 6 nM and the EC50 ([10]; HEp-2, recombinant RSV N K136R) was 125 ± 20 nM. The EC50 ([10]; HEp-2, recombinant RSV N L139I) was 326 ± 83 nM, the EC50 ([10]; HEp-2, recombinant RSV N M109I) was 70 ± 26 nM and the EC50 ([10]; HEp-2, recombinant RSV N M109K) was 1220 nM. For the same compound, the EC50 ([10]; HEp-2, recombinant RSV N M109K mutant) was about 1200 nM, the EC50 ([10]; HEp-2, recombinant RSV N M109T) was 244 ± 61 nM and the EC50 ([10]; HEp-2, recombinant RSV N N105D) was 60 ± 44 nM. The EC50 ([10]; HEp-2, recombinant RSV N S134T) was 99 ± 26 nM, the EC50 ([10]; HEp-2, recombinant RSV N V90A) was 46 ± 29 nM and the EC50 ([10]; HEp-2, recombinant RSV Wild-type (WT), HEp2) was 45 ± 21 nM. It also gave an EC50 ([11]; 120 h, compound addition at -2 h, HEp-2, RSV-A Long MOI 0.1, CPE 5 days) of 49 nM, an EC50 ([11]; compound addition at 2 h post-infection) of 55 nM and an EC50 ([11]; compound addition at 6 h post-infection) of 76 nM. For the same compound, the EC50 ([11]; compound addition at 24 h post-infection) was 66 nM, the cytoprotective activity maintained ([11]; when given up to 24 hpi, RSV-A Long MOI 0.1) was “about 80%” and the EC50 ([12]; 144 h, RSV-A M37 MOI 0.1, 6 days) was 23 ± 14 nM. It also gave an EC90 ([12]; RSV-A M37) of 36 ± 17 nM.
